The values below come from patent publication US8883963B2 (Cadila Healthcare Limited, priority 2007, dated 2014).

Each structure is given as a SMILES string. Non-standard residues stand in square brackets, D forms with d. Residues, ends and D or L forms follow the SMILES beside them. ξ: configuration not given here. ξBip(2'-Et-4'-OMe) = CCc1cc(OC)ccc1-c1ccc(CC(N)C(=O)O)cc1; ξNva(5-(3-Cl-Ph)) = NC(CCCc1cccc(Cl)c1)C(=O)O; Ac5c = NC1(C(=O)O)CCCC1 Bounds are passed on as bounds.

The nature of data set [1]: Stability in simulated gastric fluid. Conditions: 2 μM peptidomimetic, simulated gastric fluid pH 1.5, 37° C.; for half-life at 2 μM: read-out: half-life (t1/2) when incubated with simulated gastric fluid. Format: in vitro ADME. The procedure:
(§1) Reactions were terminated by the addition of TFA/H2O (15 mL, 10% (v/v)). […] The column was equilibrated with TFA/H20, at a flow rate of 1 mL/min.

For data set [2], the system named is RIN5F (Rat Insulinoma) cells. In words: In vitro glucose-dependent insulin secretion (RIN5F cell assay screening protocol). Format: cell-based. The following applies: 16.7 mM glucose load.
The nature of data set [3]: Stability in human plasma. Format: in vitro ADME. Conditions: 2 μM peptidomimetic, pooled human plasma, 37° C.; for half-life at 2 μM: pH 7.8, read-out: half-life (t1/2) when incubated with human plasma. The procedure:
as §1

The target of a further data set is DPP IV (Homo sapiens, UniProt P27487). In words: Stability against DPP IV enzyme. It is filed as in vitro ADME. The following applies: 37° C.; for % degradation of peptidomimetics in 24 h when incubated with DPP-IV enzyme: 2 μM peptidomimetic; for half-life at 2 μM: DPP IV enzyme, pH 7.8, 2 μM peptidomimetic, read-out: half-life (t1/2) when incubated with DPP-IV enzyme. The procedure:
as §1

Data set [4] in a line: Stability in simulated intestinal fluid. Conditions: 2 μM peptidomimetic, simulated intestinal fluid pH 7.5, 37° C.; for half-life at 2 μM: read-out: half-life (t1/2) when incubated with simulated intestinal fluid. It is filed as in vitro ADME. As to the method:
as §1

Data set [5] in a line: Stability in liver microsomes. Format: in vitro ADME. Conditions: 2 μM peptidomimetic, human liver microsomes, 37° C.; for half-life at 2 μM: pH 7.8, read-out: half-life (t1/2) when incubated with liver microsomes. As to the method:
as §1

The target in another data set is T1, human glucagon receptor (Homo sapiens, UniProt P47871).
T1 construct: The full-length cDNA was cloned in pcDNA3.1 (Invitrogen); expressed in transfected cells
T1 sequence (P47871 26-477): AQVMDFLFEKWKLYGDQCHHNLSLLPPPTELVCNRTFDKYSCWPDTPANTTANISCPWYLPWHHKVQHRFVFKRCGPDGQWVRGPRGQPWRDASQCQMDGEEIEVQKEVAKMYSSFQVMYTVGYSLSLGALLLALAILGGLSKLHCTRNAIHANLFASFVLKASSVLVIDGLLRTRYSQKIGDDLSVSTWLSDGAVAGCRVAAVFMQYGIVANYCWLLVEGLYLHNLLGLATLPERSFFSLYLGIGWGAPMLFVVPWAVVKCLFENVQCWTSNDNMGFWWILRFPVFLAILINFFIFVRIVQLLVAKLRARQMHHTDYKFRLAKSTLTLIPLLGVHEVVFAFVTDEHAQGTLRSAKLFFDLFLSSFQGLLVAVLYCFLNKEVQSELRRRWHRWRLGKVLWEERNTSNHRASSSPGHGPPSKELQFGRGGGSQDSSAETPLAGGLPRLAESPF
The data set is described as follows: In vitro human glucagon antagonist activity (inhibition of cAMP production) in CHO/human glucagon R cells. It is filed as cell-based. Conditions: with saturated concentration of glucagon peptide.

Sequence of DPP IV (P27487 whole entry, species assumed): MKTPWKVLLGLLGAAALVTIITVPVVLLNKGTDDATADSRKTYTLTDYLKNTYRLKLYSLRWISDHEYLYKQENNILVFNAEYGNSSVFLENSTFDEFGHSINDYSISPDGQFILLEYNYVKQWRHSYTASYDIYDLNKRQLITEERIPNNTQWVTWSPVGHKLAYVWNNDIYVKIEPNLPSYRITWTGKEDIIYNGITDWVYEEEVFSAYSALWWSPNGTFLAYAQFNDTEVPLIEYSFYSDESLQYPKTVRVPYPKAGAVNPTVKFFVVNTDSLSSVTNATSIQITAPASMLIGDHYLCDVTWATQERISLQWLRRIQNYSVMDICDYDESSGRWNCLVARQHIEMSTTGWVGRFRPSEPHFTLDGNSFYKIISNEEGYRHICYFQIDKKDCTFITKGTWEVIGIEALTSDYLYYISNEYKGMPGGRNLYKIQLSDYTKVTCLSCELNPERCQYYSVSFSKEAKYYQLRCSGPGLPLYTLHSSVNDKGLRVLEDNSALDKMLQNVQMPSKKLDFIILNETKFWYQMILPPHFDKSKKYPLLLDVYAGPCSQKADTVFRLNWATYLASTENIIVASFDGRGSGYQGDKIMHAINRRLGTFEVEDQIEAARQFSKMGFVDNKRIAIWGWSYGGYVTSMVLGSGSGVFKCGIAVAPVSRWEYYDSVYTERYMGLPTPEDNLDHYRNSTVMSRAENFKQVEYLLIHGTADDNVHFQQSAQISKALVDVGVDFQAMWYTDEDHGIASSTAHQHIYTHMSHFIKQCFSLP

Take `CCc1cc(OC)ccc1-c1ccc(CC(NC(=O)[C@H](CC(=O)O)NC(=O)[C@H](CO)NC(=O)[C@@H](NC(=O)[C@H](Cc2ccccc2)NC(=O)[C@@H](NC(=O)CNC(=O)[C@H](CCC(N)=O)NC(=O)C2(NC(=O)[C@@H](N)Cc3c[nH]cn3)CCCC2)[C@@H](C)O)[C@@H](C)O)C(=O)NC(CCCc2cccc(Cl)c2)C(N)=O)cc1` (some centres unmarked) [compound 27] (H-H[Ac5c]QGTFTSD[ξBip(2'-Et-4'-OMe)][ξNva(5-(3-Cl-Ph))]-NH2): in data set [1], the “% degradation of peptidomimetics in 24 h when incubated with simulated gastric fluid” value (“% degradation … with simulated gastric fluid” below) was 00% and the half-life at 2 μM is greater than 24 h. Besides, the Insulin secretion in data set [2] (0.1 nM test compd.) turned out to be 16.4 ± 0.12 pg/µg/h. The compound further registered an Insulin secretion in data set [2] (1 nM test compd.) of 22.7 ± 0.17 pg/µg/h. The Insulin secretion in data set [2] (10 nM test compd.) was found to be 36.6 ± 0.05 pg/µg/h. In data set [3], the “% degradation of peptidomimetics in 24 h when incubated with human plasma” value (from here on “% degradation … with human plasma”) amounted to 00% and the half-life at 2 μM is greater than 24 h. Also, on DPP IV, the “% degradation of peptidomimetics in 24 h when incubated with DPP-IV enzyme” value (“% degradation … with DPP-IV enzyme” below) turned out to be 00% and the half-life at 2 μM was greater than 24 h. In addition, in data set [4], the “% degradation of peptidomimetics in 24 h when incubated with simulated intestinal fluid” value (“% degradation … with simulated intestinal fluid” below) is 00% and the half-life at 2 μM is greater than 24 h. In addition, in data set [5], the “half-life (t1/2) when incubated with liver microsomes” value is “(5) h” and the “% degradation of peptidomimetics in 24 h when incubated with liver microsomes” value (“% degradation … with liver microsomes” for short) stood at 31%.
With `CCc1cc(OC)ccc1-c1ccc(CC(NC(=O)[C@H](CC(=O)O)NC(=O)[C@H](CO)NC(=O)[C@@H](NC(=O)[C@H](Cc2ccccc2)NC(=O)[C@@H](NC(=O)CNC(=O)C(CCC#N)NC(=O)C(C)(C)NC(=O)[C@@H](N)Cc2c[nH]cn2)[C@@H](C)O)[C@@H](C)O)C(=O)NC(CCCc2ccc(F)cc2F)C(N)=O)cc1` (single isomer, unassigned) [compound 78], in data set [1], the “% degradation … with simulated gastric fluid” value is listed as 100%. Further, the half-life at 2 μM in data set [1], in data set [4] and in data set [5] was 0.5 h throughout. Further, the Insulin secretion in data set [2] (0.1 nM test compd.) came out at 16.6 ± 0.41 pg/µg/h; in data set [2] (1 nM test compd.), 22.9 ± 0.32 pg/µg/h; in data set [2] (10 nM test compd.) it was 36.7 ± 0.11 pg/µg/h. The “Human Glucagon receptor antagonistic activity shown as inhibition of cAMP production of Glucagon peptide” value at human glucagon receptor (1 nM test compound) came to 22 ± 0.03 pmol/ml/μg prt; on human glucagon receptor (10 nM test compound), 21 ± 0.05 pmol/ml/μg prt; on human glucagon receptor (100 nM test compound), 20 ± 0.07 pmol/ml/μg prt; on human glucagon receptor (1 μM test compound), 18 ± 0.04 pmol/ml/μg prt; at human glucagon receptor (10 μM test compound), 18 ± 0.03 pmol/ml/μg prt. Besides, in data set [3], the “half-life (t1/2) when incubated with human plasma” value is “(9) h”. In data set [3], the “% degradation … with human plasma” value is reported as 71%. On DPP IV, the “% degradation … with DPP-IV enzyme” value is 70%. The “% degradation … with simulated intestinal fluid” value in data set [4] is on record as 100%. For the same compound, in data set [5], the “% degradation … with liver microsomes” value amounted to 100%.
Consider `CCc1cc(OC)ccc1-c1ccc(CC(C(=O)N(C)C(CCCc2ccccc2)C(N)=O)N(C)C(=O)[C@H](CC(=O)O)NC(=O)[C@H](CO)NC(=O)[C@@H](NC(=O)C(C)(Cc2ccccc2F)NC(=O)[C@@H](NC(=O)CNC(=O)C(CCC#N)NC(=O)C(C)(C)NC(=O)[C@@H](N)Cc2c[nH]cn2)[C@H](C)O)[C@H](C)O)cc1` (single isomer, unassigned) [compound 142], for which, in data set [1], the “half-life (t1/2) when incubated with simulated gastric fluid” value was “(8) h”. Moreover, the “% degradation … with simulated gastric fluid” value in data set [1] was 13%. Further, the results for the Insulin secretion in data set [2] (0.1 nM test compd.), in data set [2] (1 nM test compd.) and in data set [2] (10 nM test compd.) were 12.9 ± 0.14 pg/µg/h, 15.8 ± 0.13 pg/µg/h and 29.9 ± 0.15 pg/µg/h, respectively. Also, the “Human Glucagon receptor antagonistic activity shown as inhibition of cAMP production of Glucagon peptide” value on human glucagon receptor (1 nM test compound) turned out to be 10 ± 0.03 pmol/ml/μg prt; at human glucagon receptor (10 nM test compound) it was 8 ± 0.03 pmol/ml/μg prt; on human glucagon receptor (100 nM test compound), 6 ± 0.22 pmol/ml/μg prt; on human glucagon receptor (1 μM test compound), 2 ± 0.13 pmol/ml/μg prt; on human glucagon receptor (10 μM test compound), 0 pmol/ml/μg prt. Further, in data set [3], the “% degradation … with human plasma” value was determined as 80%. For the same compound, the half-life at 2 μM worked out at 8 h in data set [3], 9 h at DPP IV and 1 h in data set [5]. For the same compound, the “% degradation … with DPP-IV enzyme” value on DPP IV is on record as 77%. In data set [4], the “half-life (t1/2) when incubated with simulated intestinal fluid” value is listed as “(6) h”. In data set [4], the “% degradation … with simulated intestinal fluid” value is listed as 50%. In data set [5], the “% degradation … with liver microsomes” value is 82%.
`CCc1cc(OC)ccc1-c1ccc(CC(NC(=O)[C@H](CC(=O)O)NC(=O)[C@H](CO)NC(=O)[C@@H](NC(=O)[C@H](Cc2ccccc2)NC(=O)[C@@H](NC(=O)CNC(=O)C(CCC#N)NC(=O)C(C)(C)NC(=O)[C@@H](N)Cc2c[nH]cn2)[C@@H](C)O)[C@@H](C)O)C(=O)NC(CCCc2cccc(Cl)c2)C(N)=O)cc1` (single isomer, unassigned) [compound 31]: the “% degradation … with simulated gastric fluid” value in data set [1] is on record as 100%. The half-life at 2 μM in data set [1], in data set [4] and in data set [5] was 0.5 h in each case. The Insulin secretion in data set [2] (0.1 nM test compd.) is 16.8 ± 0.20 pg/µg/h; in data set [2] (1 nM test compd.), 22.7 ± 0.29 pg/µg/h; in data set [2] (10 nM test compd.) it was 36.6 ± 0.31 pg/µg/h. The “Human Glucagon receptor antagonistic activity shown as inhibition of cAMP production of Glucagon peptide” value was determined as 6 ± 0.02 pmol/ml/μg prt on human glucagon receptor (1 nM test compound); 5 ± 0.03 pmol/ml/μg prt at human glucagon receptor (10 nM test compound); 2 ± 0.61 pmol/ml/μg prt on human glucagon receptor (100 nM test compound); 0 pmol/ml/μg prt on human glucagon receptor (1 μM test compound); 0 pmol/ml/μg prt at human glucagon receptor (10 μM test compound). Besides, the “half-life (t1/2) when incubated with human plasma” value in data set [3] was “(9) h”. For the same compound, the “% degradation … with human plasma” value in data set [3] is on record as 78%. Also, on DPP IV, the “% degradation … with DPP-IV enzyme” value was 76%. Moreover, in data set [4], the “% degradation … with simulated intestinal fluid” value is listed as 100%. The “% degradation … with liver microsomes” value in data set [5] is 100%.
For the compound `CCc1cc(OC)ccc1-c1ccc(CC(NC(=O)[C@H](CC(=O)O)NC(=O)[C@H](CO)NC(=O)[C@@H](NC(=O)C(C)(Cc2ccccc2F)NC(=O)[C@@H](NC(=O)CNC(=O)C(CCC#N)NC(=O)C(C)(C)NC(=O)[C@@H](N)Cc2c[nH]cn2)[C@H](C)O)[C@H](C)O)C(=O)N(C)C(CCCc2ccccc2F)C(N)=O)cc1` (single isomer, unassigned) [compound 132], the “half-life (t1/2) when incubated with simulated gastric fluid” value in data set [1] was “(8) h”. The “% degradation … with simulated gastric fluid” value in data set [1] is given as 14%. The Insulin secretion amounted to 13.1 ± 0.11 pg/µg/h in data set [2] (0.1 nM test compd.), 14.9 ± 0.17 pg/µg/h in data set [2] (1 nM test compd.) and 28.8 ± 0.44 pg/µg/h in data set [2] (10 nM test compd.). The “Human Glucagon receptor antagonistic activity shown as inhibition of cAMP production of Glucagon peptide” value was 15 ± 0.11 pmol/ml/μg prt at human glucagon receptor (1 nM test compound); 12 ± 0.13 pmol/ml/μg prt on human glucagon receptor (10 nM test compound); 8 ± 0.09 pmol/ml/μg prt at human glucagon receptor (100 nM test compound); 4 ± 0.01 pmol/ml/μg prt on human glucagon receptor (1 μM test compound); 2 ± 0.08 pmol/ml/μg prt on human glucagon receptor (10 μM test compound). The “% degradation … with human plasma” value in data set [3] is listed as 77%. In addition, the half-life at 2 μM in data set [3] came to 8 h; at DPP IV, 9 h; in data set [5], 1 h. In addition, at DPP IV, the “% degradation … with DPP-IV enzyme” value turned out to be 75%. The “half-life (t1/2) when incubated with simulated intestinal fluid” value in data set [4] was “(6) h”. Further, the “% degradation … with simulated intestinal fluid” value in data set [4] is 45%. Further, the “% degradation … with liver microsomes” value in data set [5] was found to be 81%.
